According to patent publication US9029391B2 (priority 2011, dated 2015):

What follows are compounds tested on HIV (assay: MT4 Assay (anti-HIV activity)). Conditions: Human immunodeficiency virus 1, 96 h, read-out: HIV MT4 Assay IC50, HTLV-1 transformed cell line MT-4, cell titer glo, 10 point dose response curve.
Assay type: cell-based
In short: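 MT-4 cells (HTLV-1 transformed) were used for antiviral activity and cytotoxicity, run in parallel, with luminescence read by CellTiter-Glo 96 hours later. Percent inhibition was expressed against the no-compound control. IC50s came from 10-point curves of 3-4-fold serial dilutions spanning >1000-fold.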

SMILES	IC50 [nM]
Cn1c(C(OC(C)(C)C)C(=O)O)c(-c2ccc3ncccc3c2)c2ccccc2c1=O (stereo not shown) [Example 62, 2-(tert-butoxy)-2-[2-methyl-1-oxo-4-(quinolin-6-yl)-1,2-dihydroisoquinolin-3-yl]acetic acid]	11100
Cn1c(C(OC(C)(C)C)C(=O)O)c(-c2ccc3c(c2)CCO3)c2ccccc2c1=O (stereo not shown) [Example 63, 2-(tert-butoxy)-2-[4-(2,3-dihydro-1-benzofuran-5-yl)-2-methyl-1-oxo-1,2-dihydroisoquinolin-3-yl]acetic acid]	1690
Cn1c(C(OC(C)(C)C)C(=O)O)c(-c2ccc3ccccc3c2)c2ccccc2c1=O (stereo not shown) [Example 64, 2-(tert-butoxy)-2-[2-methyl-4-(naphthalen-2-yl)-1-oxo-1,2-dihydroisoquinolin-3-yl]acetic acid]	8700
CCn1c(C(OC(C)(C)C)C(=O)O)c(-c2ccc3c(c2)CCCO3)c2ccccc2c1=O (stereo not shown) [Example 65, 2-(tert-butoxy)-2-[4-(3,4-dihydro-2H-1-benzopyran-6-yl)-2-ethyl-1-oxo-1,2-dihydroisoquinolin-3-yl]acetic acid]	1460
Cc1cc(-c2c(C(OC(C)(C)C)C(=O)O)n(C)c(=O)c3ccccc23)cc(C)c1Cl (stereo not shown) [Example 66, 2-(tert-butoxy)-2-[4-(4-chloro-3,5-dimethylphenyl)-2-methyl-1-oxo-1,2-dihydroisoquinolin-3-yl]acetic acid]	3600
Cc1ccc2c(-c3ccc4c(c3C)CCCO4)c(C(OC(C)(C)C)C(=O)O)n(C)c(=O)c2c1 (stereo not shown) [Example 67, 2-(tert-butoxy)-2-[2,7-dimethyl-4-(5-methyl-3,4-dihydro-2H-1-benzopyran-6-yl)-1-oxo-1,2-dihydroisoquinolin-3-yl]acetic acid]	120
Cn1c(C(OC(C)(C)C)C(=O)O)c(-c2ccc3c(c2)CCCO3)c2ccc(Cl)cc2c1=O (stereo not shown) [Example 68, 2-(tert-butoxy)-2-[7-chloro-4-(3,4-dihydro-2H-1-benzopyran-6-yl)-2-methyl-1-oxo-1,2-dihydroisoquinolin-3-yl]acetic acid]	2450
Cc1c(-c2c(C(OC(C)(C)C)C(=O)O)n(C)c(=O)c3ccc(F)cc23)ccc2c1CCCO2 (stereo not shown) [Example 69, 2-(tert-butoxy)-2-[6-fluoro-2-methyl-4-(5-methyl-3,4-dihydro-2H-1-benzopyran-6-yl)-1-oxo-1,2-dihydroisoquinolin-3-yl]acetic acid]	570
Cc1c(-c2c(C(OC(C)(C)C)C(=O)O)n(C)c(=O)c3ccccc23)cc(Cl)c2c1CCCO2 (stereo not shown) [Example 70, 2-(tert-butoxy)-2-[4-(8-chloro-5-methyl-3,4-dihydro-2H-1-benzopyran-6-yl)-2-methyl-1-oxo-1,2-dihydroisoquinolin-3-yl]acetic acid]	1230
Cc1ccccc1-c1c(C(OC(C)(C)C)C(=O)O)n(C)c(=O)c2ccccc12 (stereo not shown) [Example 71, 2-(tert-butoxy)-2-[2-methyl-4-(2-methylphenyl)-1-oxo-1,2-dihydroisoquinolin-3-yl]acetic acid]	1450
COc1ccc2c(-c3ccc4c(c3)CCCO4)c(C(OC(C)(C)C)C(=O)O)n(C)c(=O)c2c1 (stereo not shown) [Example 72, 2-(tert-butoxy)-2-[4-(3,4-dihydro-2H-1-benzopyran-6-yl)-7-methoxy-2-methyl-1-oxo-1,2-dihydroisoquinolin-3-yl]acetic acid]	400
Cc1c(-c2c(C(OC(C)(C)C)C(=O)O)n(C)c(=O)c3cc(F)ccc23)ccc2c1CCCO2 (stereo not shown) [Example 75, 2-(tert-butoxy)-2-[7-fluoro-2-methyl-4-(5-methyl-3,4-dihydro-2H-1-benzopyran-6-yl)-1-oxo-1,2-dihydroisoquinolin-3-yl]acetic acid]	390
COc1ccc2c(-c3ccc4c(c3C)CCCO4)c(C(OC(C)(C)C)C(=O)O)n(C)c(=O)c2c1 (stereo not shown) [Example 76, 2-(tert-butoxy)-2-[7-methoxy-2-methyl-4-(5-methyl-3,4-dihydro-2H-1-benzopyran-6-yl)-1-oxo-1,2-dihydroisoquinolin-3-yl]acetic acid]	120
CCn1c(C(OC(C)(C)C)C(=O)O)c(-c2ccc3c(c2C)CCCO3)c2ccccc2c1=O (stereo not shown) [Example 77, 2-(tert-butoxy)-2-[2-ethyl-4-(5-methyl-3,4-dihydro-2H-1-benzopyran-6-yl)-1-oxo-1,2-dihydroisoquinolin-3-yl]acetic acid]	490
Cn1c(C(OC(C)(C)C)C(=O)O)c(-c2ccc3c(c2)CCC(C)(C)O3)c2ccccc2c1=O (stereo not shown) [Example 78, 2-(tert-butoxy)-2-[4-(2,2-dimethyl-3,4-dihydro-2H-1-benzopyran-6-yl)-2-methyl-1-oxo-1,2-dihydroisoquinolin-3-yl]acetic acid]	41600
Cc1c(-c2c(C(OC(C)(C)C)C(=O)O)n(C)c(=O)c3cc(Cl)ccc23)ccc2c1CCCO2 (stereo not shown) [Example 79, 2-(tert-butoxy)-2-[7-chloro-2-methyl-4-(5-methyl-3,4-dihydro-2H-1-benzopyran-6-yl)-1-oxo-1,2-dihydroisoquinolin-3-yl]acetic acid]	200

SMILES	IC50 [nM]
CC(=O)N1CCc2ccc(-c3c(C(OC(C)(C)C)C(=O)O)n(C)c(=O)c4ccccc34)cc2C1 (stereo not shown) [Example 80, 2-[4-(2-acetyl-1,2,3,4-tetrahydroisoquinolin-7-yl)-2-methyl-1-oxo-1,2-dihydroisoquinolin-3-yl]-2-(tert-butoxy)acetic acid]	50000
COCCOc1ccc2c(-c3ccc4c(c3C)CCCO4)c(C(OC(C)(C)C)C(=O)O)n(C)c(=O)c2c1 (stereo not shown) [Example 81, 2-(tert-butoxy)-2-[7-(2-methoxyethoxy)-2-methyl-4-(5-methyl-3,4-dihydro-2H-1-benzopyran-6-yl)-1-oxo-1,2-dihydroisoquinolin-3-yl]acetic acid]	440
Cn1c(C(OC(C)(C)C)C(=O)O)c(-c2ccc3c(c2)NCCO3)c2ccccc2c1=O (stereo not shown) [Example 82, 2-(tert-butoxy)-2-[4-(3,4-dihydro-2H-1,4-benzoxazin-6-yl)-2-methyl-1-oxo-1,2-dihydroisoquinolin-3-yl]acetic acid]	7400
Cc1c(-c2c(C(OC(C)(C)C)C(=O)O)n(C)c(=O)c3c(F)cccc23)ccc2c1CCCO2 (stereo not shown) [Example 83, 2-(tert-butoxy)-2-[8-fluoro-2-methyl-4-(5-methyl-3,4-dihydro-2H-1-benzopyran-6-yl)-1-oxo-1,2-dihydroisoquinolin-3-yl]acetic acid]	500
Cc1c(-c2c(C(OC(C)(C)C)C(=O)O)n(C)c(=O)c3cc(O)ccc23)ccc2c1CCCO2 (stereo not shown) [Example 84, 2-(tert-butoxy)-2-[7-hydroxy-2-methyl-4-(5-methyl-3,4-dihydro-2H-1-benzopyran-6-yl)-1-oxo-1,2-dihydroisoquinolin-3-yl]acetic acid]	26000
Cc1c(-c2c(C(OC(C)(C)C)C(=O)O)n(C)c(=O)c3cc(OCCN(C)C)ccc23)ccc2c1CCCO2 (stereo not shown) [Example 85, 2-(tert-butoxy)-2-{7-[2-(dimethylamino)ethoxy]-2-methyl-4-(5-methyl-3,4-dihydro-2H-1-benzopyran-6-yl)-1-oxo-1,2-dihydroisoquinolin-3-yl}acetic acid]	7630
Cn1c(C(OC(C)(C)C)C(=O)O)c(-c2ccc3c(c2Cl)NCCO3)c2ccccc2c1=O (stereo not shown) [Example 86, 2-(tert-butoxy)-2-[4-(5-chloro-3,4-dihydro-2H-1,4-benzoxazin-6-yl)-2-methyl-1-oxo-1,2-dihydroisoquinolin-3-yl]acetic acid]	4380
Cc1ccc(-c2c(C(OC(C)(C)C)C(=O)O)n(C)c(=O)c3cc(F)ccc23)cc1C (stereo not shown) [Example 87, 2-(tert-butoxy)-2-[4-(3,4-dimethylphenyl)-7-fluoro-2-methyl-1-oxo-1,2-dihydroisoquinolin-3-yl]acetic acid]	740
Cc1c(-c2c(C(OC(C)(C)C)C(=O)O)n(C)c(=O)c3cc(OCc4ccccc4)ccc23)ccc2c1CCCO2 (stereo not shown) [Example 88, 2-[7-(benzyloxy)-2-methyl-4-(5-methyl-3,4-dihydro-2H-1-benzopyran-6-yl)-1-oxo-1,2-dihydroisoquinolin-3-yl]-2-(tert-butoxy)acetic acid]	110
Cc1c(-c2c(C(OC(C)(C)C)C(=O)O)n(C)c(=O)c3cc(OCCF)ccc23)ccc2c1CCCO2 (stereo not shown) [Example 89, 2-(tert-butoxy)-2-[7-(2-fluoroethoxy)-2-methyl-4-(5-methyl-3,4-dihydro-2H-1-benzopyran-6-yl)-1-oxo-1,2-dihydroisoquinolin-3-yl]acetic acid]	400
Cc1c(-c2c(C(OC(C)(C)C)C(=O)O)n(C)c(=O)c3c(F)cccc23)cc(F)c2c1CCCO2 (stereo not shown) [Example 90, 2-(tert-butoxy)-2-[8-fluoro-4-(8-fluoro-5-methyl-3,4-dihydro-2H-1-benzopyran-6-yl)-2-methyl-1-oxo-1,2-dihydroisoquinolin-3-yl]acetic acid]	510
Cc1c(-c2c(C(OC(C)(C)C)C(=O)O)n(C)c(=O)c3ccc(F)cc23)cc(F)c2c1CCCO2 (stereo not shown) [Example 91, 2-(tert-butoxy)-2-[6-fluoro-4-(8-fluoro-5-methyl-3,4-dihydro-2H-1-benzopyran-6-yl)-2-methyl-1-oxo-1,2-dihydroisoquinolin-3-yl]acetic acid]	440
Cc1c(-c2c(C(OC(C)(C)C)C(=O)O)n(C)c(=O)c3cc(F)ccc23)cc(F)c2c1CCCO2 (stereo not shown) [Example 92, 2-(tert-butoxy)-2-[7-fluoro-4-(8-fluoro-5-methyl-3,4-dihydro-2H-1-benzopyran-6-yl)-2-methyl-1-oxo-1,2-dihydroisoquinolin-3-yl]acetic acid]	140
Cc1c(-c2c(C(OC(C)(C)C)C(=O)O)n(C)c(=O)c3cc(OCc4ccc(F)cc4)ccc23)ccc2c1CCCO2 (stereo not shown) [Example 93, 2-(tert-butoxy)-2-{7-[(4-fluorophenyl)methoxy]-2-methyl-4-(5-methyl-3,4-dihydro-2H-1-benzopyran-6-yl)-1-oxo-1,2-dihydroisoquinolin-3-yl}acetic acid]	80
COc1ccc2c(-c3ccc4c(c3C)CCCO4)c([C@H](OC(C)(C)C)C(=O)O)n(C)c(=O)c2c1 [Example 94, (2S)-2-(tert-butoxy)-2-[7-methoxy-2-methyl-4-(5-methyl-3,4-dihydro-2H-1-benzopyran-6-yl)-1-oxo-1,2-dihydroisoquinolin-3-yl]acetic acid]	20
